In patent publication US6455510B1, “Chemical Compounds” (SmithKline Beecham Corporation, priority 1997, dated 2002):

Key:
[1] = target: T1, human adenosine A3 receptor (Homo sapiens, UniProt P0DMS8); assay: Reporter gene assay (CRE/SPAP) in CHO cells, agonist activity, adenosine A3; assay type: cell-based; details: CHO cells stably transfected with human adenosine A3 receptor; inhibition of forskolin-stimulated SPAP production; potency relative to NECA=1
T1 construct: expressed in transfected cells; host or cells: Chinese hamster ovary (CHO) cells containing CRE/SPAP/HYG reporter elements
T1 sequence (P0DMS8 1-318): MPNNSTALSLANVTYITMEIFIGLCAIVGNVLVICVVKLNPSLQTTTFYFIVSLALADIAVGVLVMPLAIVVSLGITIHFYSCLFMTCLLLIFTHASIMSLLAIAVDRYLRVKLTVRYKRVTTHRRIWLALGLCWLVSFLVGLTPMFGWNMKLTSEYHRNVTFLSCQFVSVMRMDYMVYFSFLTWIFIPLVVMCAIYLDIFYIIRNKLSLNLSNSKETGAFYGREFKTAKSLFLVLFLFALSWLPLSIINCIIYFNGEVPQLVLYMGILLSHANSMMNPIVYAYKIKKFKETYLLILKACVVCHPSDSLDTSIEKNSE
Experimental: (§1) Reporter Gene Experiments
(§2) Agonist activity was measured in Chinese hamster ovary (CHO) cells containing the CRE/SPAP/HYG (CRE=cyclic AMP response element; HYG=hygromycin resistance; SPAP=secreted placental alkaline phosphatase) reporter gene elements, which upon stimulation of cAMP levels produced SPAP. A cell line was used, which was stably transfected with either the human adenosine Al receptor or the human adenosine A3 receptor in addition to the above elements. Cells were plated out in 96-well plates in culture medium and incubated at 37° C. for 1 hour. For measurement of potency, agonists were added to the appropriate wells at a concentration range of approximately 10^−10-10^−5M. 15 Min later, cAMP levels were stimulated by addition of a maximal concentration of forskolin. All cells were then incubated for a further 5 hours at 37° C., and cooled to room temperature, after which a substrate for the phosphatase (para-nitrophenol phosphate, pNPP), which is converted by SPAP to a coloured reagent) was then added and the 96-well plates were read in a plate reader. From these readings, the concentration-dependence of the inhibition by the agonist for forskolin-stimulated SPAP production can be calculated. One of the agonists tested on each 96-well plate was the standard non-selective agonist, N-ethylcarboxamidoadenosine (NECA), and the potency of all test agonists is expressed relative to that of the NECA standard.
(§3) (ECR=equipotent concentration ratio relative to NECA=1)

[2] = target: T2, human adenosine A1 receptor (Homo sapiens, UniProt P30542); assay: Reporter gene assay (CRE/SPAP) in CHO cells, agonist activity, adenosine A1; assay type: cell-based; details: CHO cells stably transfected with human adenosine A1 receptor; inhibition of forskolin-stimulated SPAP production; potency relative to NECA=1
T2 construct: expressed in transfected cells; host or cells: Chinese hamster ovary (CHO) cells containing CRE/SPAP/HYG reporter elements
T2 sequence (P30542 1-326): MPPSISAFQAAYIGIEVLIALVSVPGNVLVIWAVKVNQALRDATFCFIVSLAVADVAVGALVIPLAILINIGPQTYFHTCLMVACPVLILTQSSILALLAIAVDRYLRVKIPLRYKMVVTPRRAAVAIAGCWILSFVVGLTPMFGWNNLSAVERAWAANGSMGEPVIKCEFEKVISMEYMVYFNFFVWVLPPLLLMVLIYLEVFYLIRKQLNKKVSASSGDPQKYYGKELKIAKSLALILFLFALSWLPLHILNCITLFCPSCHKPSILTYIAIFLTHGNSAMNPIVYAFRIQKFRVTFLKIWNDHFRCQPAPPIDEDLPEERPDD
Experimental: as §1
as §2, with “For measurement of potency, agonists were added to the appropriate wells at a concentration range of approximately 10^−10-10^−5M.” left out, “calculated.” for “calculated. One of the agonists tested on each 96-well plate was the standard non-selective agonist, N-ethylcarboxamidoadenosine (NECA), and the potency of all test agonists is expressed relative to that of the NECA standard.”
as §3

SMILES | A3 Receptor, Reporter Gene Assay ECR (equipotent concentration ratio relative to NECA=1) [1] | A1 Receptor, Reporter Gene Assay ECR (equipotent concentration ratio relative to NECA=1) [2]
O[C@@H]1[C@H](O)[C@@H](CF)O[C@H]1n1cnc2c(NC3CCSCC3)ncnc21 [Example 21, 5′-Deoxy-5′-fluoro-N-(tetrahydro-thiopyran-4-yl)-adenosine] | >353.00 | 1.64
CC(C)CNc1nc(Cl)nc2c1ncn2[C@@H]1O[C@H](CF)[C@@H](O)[C@H]1O [Example 22, 2-Chloro-5′-deoxy-5′-fluoro-N-isobutyl-adenosine] | >145.00 | 3.30
CS(=O)(=O)N1CCC(Nc2nc(Cl)nc3c2ncn3[C@@H]2O[C@H](CF)[C@@H](O)[C@H]2O)CC1 [Example 23, 2-Chloro-5′-deoxy-5′-fluoro-N-(1-methanesulfonyl-piperidin-4-yl)-adenosine] | 48.90 | 11.20
CC(C)(C)CNc1nc(Cl)nc2c1ncn2[C@@H]1O[C@H](CF)[C@@H](O)[C@H]1O [Example 24, 2-Chloro-5′-deoxy-N-(2,2-dimethyl-propyl)-5′-fluoro-adenosine] | >233.00 | 7.83
CCCCOC(=O)N1CCC(Nc2nc(Cl)nc3c2ncn3[C@@H]2O[C@H](CF)[C@@H](O)[C@H]2O)CC1 [Example 26, 4-[2-Chloro-9-(5S-fluoromethyl-3R,4S-dihydroxy-tetrahydro-furan-2R-yl)-9H-purin-6-ylamino]-piperidine-1-carboxylic acid butyl ester] | >233.00 | 4.50
O[C@@H]1[C@H](O)[C@@H](CF)O[C@H]1n1cnc2c(Nc3ccc(Cl)cc3F)ncnc21 [Example 28, N-(4-Chloro-2-fluoro-phenyl)-5′-deoxy-5′-fluoro-adenosine] | >170.00 | 2.05
CCNC(=O)N1CCC(Nc2nc(Cl)nc3c2ncn3[C@@H]2O[C@H](CF)[C@@H](O)[C@H]2O)CC1 [Example 29, 4-[2-Chloro-9-(5S-fluoromethyl-3R,4S-dihydroxy-tetrahydro-furan-2R-yl)-9H-purin-6-ylamino]-piperidine-1-carboxylic acid ethylamide] | >236.00 | 51.60
